Measured values: US9527885B2, “Hepatitis C virus inhibitors” (BRISTOL-MYERS SQUIBB COMPANY, priority 2011, dated 2016)

Experiments:
[1] = system: HCV genotype 1a (H77 strain) replicon in HUH-7 cells; experiment: HCV replicon luciferase reporter assay, genotype 1a; assay type: cell-based; conditions: Hepatitis C virus, Huh-7, 72 h, HCV genotype 1a replicon luciferase, 3 days incubation, class symbols, read-out: LE_1a (EC50, range)
Description: (§1) An HCV replicon whole cell system was established as described by Lohmann V, Korner F, Koch J, Herian U, Theilmann L, Bartenschlager R., Science 285(5424):110-3 (1999) and modified to introduce a luciferase reporter, as first described by Krieger et al (Krieger N, Lohmann V, and Bartenschlager R, J. Virol. 75(10):4614-4624 (2001)). CDNA encoding a humanized form of the Renilla luciferase gene and a linker sequence fused directly to the 3′-end of the luciferase gene were introduced into the replicon construct using an Asc1 restriction site located in core, directly upstream of the neomycin marker gene. The adaptive mutation at position 1179 (serine to isoleucine) was also introduced (Blight K J, Kolykhalov, A A, Rice, C M, Science 290(5498):1972-1974). A stable cell line constitutively expressing this HCV replicon construct was generated by first linearizing plasmid DNAs with ScaI. RNA transcripts were synthesized in vitro using the T7 MegaScript transcription kit (Ambion, Austin, Tex.) according to manufacturer's directions. In vitro transcripts of the cDNA were transfected into the human hepatoma cell line, HUH-7. […] Resulting cell lines were characterized for positive and negative strand RNA production and protein production over time.
A stable HCV replicon luciferase reporter cell line representing the genotype 1a H77 strain (Yanagi M, Purcell R H, Emerson S U, et al. Transcripts from a single full-length cDNA clone of hepatitis C virus are infectious when directly transfected into the liver of a chimpanzee. Proc Natl Acad Sci USA 1997; 94(16):8738-8743) was generated as described previously for the genotype 1b (Con1) replicon luciferase cell line. The replicon construct was modified by introducing mutations were introduced into the genes encoding the NS3 helicase domain (proline replaced by leucine at position 1496) and NS5A (serine to isoleucine at position 2204) to improve replication in cell culture.
(§2) HCV replicon luciferase assays were developed to monitor the inhibitory effects of compounds described in the disclosure on HCV genotypes 1a and 1b viral replication. HUH-7 cells, constitutively expressing the HCV replicon, were grown in Dulbecco's Modified Eagle Media (DMEM) (Gibco-BRL) containing 10% Fetal calf serum (FCS) (Sigma) and 1 mg/mL G418 (Gibco-BRL). Compounds were serially diluted 3 folds in DMSO for a twenty-point titration and subsequently transferred to sterile 384-well tissue-culture treated plates (Corning cat #3571). The plates were then seeded with 50 μL of cells at a density of 3.0×10^3 cells/well in DMEM containing 4% FCS (final DMSO concentration at 0.5%). After 3 days incubation at 37° C., cells were analyzed for Renilla Luciferase activity using the EnduRen as substrate (Promega cat #E6485). The EnduRen substrate was diluted in DMEM and then added to the plates to a final concentration of 7.5 μM. The plates were incubated for 2 hrs at 37° C. and then read immediately for 30 seconds with Viewlux Imager (PerkinElmer) using a luminescence program. To assess cytotoxicity of compounds, CC50 values were generated by multiplexing the EnduRen-containing plates with Cell Titer-Blue (Promega, cat # G8082). Cell-Titer Blue (3 μL) was added to each well and incubated for 8 hrs at 37° C. The fluorescence signal from each well was read, with an excitation wavelength at 525/10 nm and an emission wavelength of 598/10 nm, using the Viewlux Imager.
(§3) The EC50 values for compounds were calculated by using a four-parameter logistic equation: y=A+((B−A)/(1+((C/x)^D))), where A and B denotes minimal and maximal % inhibition, respectively, C is the EC50, D is the hill slope and x represents compound concentration.

[2] = system: HCV genotype 1b (Con1) replicon in HUH-7 cells; experiment: HCV replicon luciferase reporter assay, genotype 1b; assay type: cell-based; conditions: Hepatitis C virus, 72 h, HCV genotype 1b replicon luciferase, 3 days incubation, class symbols, read-out: LE_1b (EC50, range)
Description: as §1, with “time. […]” for “time.”
as §2, §3

| SMILES | EC50 [1] [nM] | EC50 [2] [nM] |
| --- | --- | --- |
| CC[C@@H]1C[C@H](C)CC/C=C\[C@@H]2C[C@@]2(C(=O)NS(=O)(=O)C2CC2)NC(=O)[C@@H]2C[C@@H](Oc3ncc(OC)c4ccc(F)cc34)CN2C(=O)[C@H]1NC(=O)OC(C)(C)C [Compound 4001, tert-butyl tert-butyl (2R,6S,7R,9R,13aS,14aR,16aS,Z)-14a-(cyclopropylsulfonylcarbamoyl)-7-ethyl-2-(7-fluoro-4-methoxyisoquinolin-1-yloxy)-9-methyl-5,16-dioxo-1,2,3,5,6,7,8,9,10,11,13a,14,14a,15,16,16a-hexadecahydrocyclopropa[e]pyrrolo[1,2-a][1,4]diazacyclopentadecin-6-ylcarbamate] | < 5.46 | < 5.46 |
| CC[C@@H]1C[C@H](C)CC/C=C\[C@@H]2C[C@@]2(C(=O)NS(=O)(=O)C2CC2)NC(=O)[C@@H]2C[C@@H](Oc3ncc(OC)c4ccccc34)CN2C(=O)[C@H]1NC(=O)OC(C)(C)C [Compound 4007, tert-butyl (2R,6S,7R,9R,13aS,14aR,16aS,Z)-14a-(cyclopropylsulfonylcarbamoyl)-7-ethyl-2-(4-methoxyisoquinolin-1-yloxy)-9-methyl-5,16-dioxo-1,2,3,5,6,7,8,9,10,11,13a,14,14a,15,16,16a-hexadecahydrocyclopropa[e]pyrrolo[1,2-a][1,4]diazacyclopentadecin-6-ylcarbamate] | < 5.46 | < 5.46 |
| CC[C@@H]1C[C@H](C)CC/C=C\[C@@H]2C[C@@]2(C(=O)NS(=O)(=O)C2CC2)NC(=O)[C@@H]2C[C@@H](Oc3ncc(OC)c4ccccc34)CN2C(=O)[C@H]1NC(=O)OC(C)(C)C(F)(F)F [Compound 4008, 1,1,1-trifluoro-2-methylpropan-2-yl (2R,6S,7R,9R,13aS,14aR,16aS,Z)-14a-(cyclopropylsulfonylcarbamoyl)-7-ethyl-2-(4-methoxyisoquinolin-1-yloxy)-9-methyl-5,16-dioxo-1,2,3,5,6,7,8,9,10,11,13a,14,14a,15,16,16a-hexadecahydrocyclopropa[e]pyrrolo[1,2-a][1,4]diazacyclopentadecin-6-ylcarbamate] | < 5.46 | < 5.46 |
| COc1ccc2c(O[C@@H]3CC4C(=O)N[C@]5(C(=O)NS(=O)(=O)C6(F)CC6)C[C@H]5/C=C\CC[C@@H](C)C[C@@H](C)[C@H](NC(=O)C(C)(C)C)C(=O)N4C3)nccc2c1 (some centres unmarked) [Compound 4015] | < 5.46 | < 5.46 |
| C[C@@H]1CC/C=C\[C@@H]2C[C@@]2(C(=O)NS(=O)(=O)C2CC2)NC(=O)[C@@H]2C[C@@H](Oc3ncc(OCC4CC4)c4ccccc34)CN2C(=O)[C@@H](NC(=O)OC(C)(C)C(F)(F)F)[C@H](C)C1 [Compound 4030, 1,1,1-trifluoro-2-methylpropan-2-yl (2R,6S,7R,9R,13aS,14aR,16aS,Z)-2-(4-(cyclopropylmethoxy)isoquinolin-1-yloxy)-14a-(cyclopropylsulfonylcarbamoyl)-7,9-dimethyl-5,16-dioxo-1,2,3,5,6,7,8,9,10,11,13a,14,14a,15,16,16a-hexadecahydrocyclopropa[e]pyrrolo[1,2-a][1,4]diazacyclopentadecin-6-ylcarbamate] | < 5.46 | < 5.46 |
| C[C@@H]1CC/C=C\[C@@H]2C[C@@]2(C(=O)NS(=O)(=O)C2CC2)NC(=O)[C@@H]2C[C@@H](Oc3ncc(OC(F)F)c4c(Cl)cccc34)CN2C(=O)[C@@H](NC(=O)OC(C)(C)C(F)(F)F)[C@H](C)C1 [Compound 4031, 1,1,1-trifluoro-2-methylpropan-2-yl (2R,6S,7R,9R,13aS,14aR,16aS,Z)-2-(5-chloro-4-(difluoromethoxy)isoquinolin-1-yloxy)-14a-(cyclopropylsulfonylcarbamoyl)-7,9-dimethyl-5,16-dioxo-1,2,3,5,6,7,8,9,10,11,13a,14,14a,15,16,16a-hexadecahydrocyclopropa[e]pyrrolo[1,2-a][1,4]diazacyclopentadecin-6-ylcarbamate] | < 5.46 | < 5.46 |
| COc1cnc(O[C@@H]2C[C@H]3C(=O)N[C@]4(C(=O)NS(=O)(=O)C5(C)CC5)C[C@H]4/C=C\CC[C@H](C)C[C@@H](C)[C@H](NC(=O)OC(C)(C)C)C(=O)N3C2)c2ccccc12 [Compound 4058, tert-butyl (2R,6S,7R,9S,13aS,14aR,16aS,Z)-2-(4-methoxyisoquinolin-1-yloxy)-7,9-dimethyl-14a-(1-methylcyclopropylsulfonylcarbamoyl)-5,16-dioxo-1,2,3,5,6,7,8,9,10,11,13a,14,14a,15,16,16a-hexadecahydrocyclopropa[e]pyrrolo[1,2-a][1,4]diazacyclopentadecin-6-ylcarbamate] | < 5.46 | < 5.46 |
| C[C@@H]1CC/C=C\[C@@H]2C[C@@]2(C(=O)NS(=O)(=O)C2CC2)NC(=O)[C@@H]2C[C@@H](Oc3nccc4ccc(F)cc34)CN2C(=O)[C@@H](NC(=O)OC(C)(C)C(F)(F)F)[C@H](C)C1 [Compound 4072, 1,1,1-trifluoro-2-methylpropan-2-yl (2R,6S,7R,9R,13aS,14aR,16aS,Z)-14a-(cyclopropylsulfonylcarbamoyl)-2-(7-fluoroisoquinolin-1-yloxy)-7,9-dimethyl-5,16-dioxo-1,2,3,5,6,7,8,9,10,11,13a,14,14a,15,16,16a-hexadecahydrocyclopropa[e]pyrrolo[1,2-a][1,4]diazacyclopentadecin-6-ylcarbamate] | < 5.46 | < 5.46 |
| COc1ccc2c(O[C@@H]3C[C@H]4C(=O)N[C@]5(C(=O)NS(=O)(=O)C6(C)CC6)C[C@H]5/C=C\CC[C@@H](C)C[C@@H](C)[C@H](NC(=O)OC(C)(C)C)C(=O)N4C3)ncc(N3CCN(S(C)(=O)=O)CC3)c2c1 [Compound 4121, tert-butyl (2R,6S,7R,9R,13aS,14aR,16aS,Z)-2-(6-methoxy-4-(4-(methylsulfonyl)piperazin-1-yl)isoquinolin-1-yloxy)-7,9-dimethyl-14a-(1-methylcyclopropylsulfonylcarbamoyl)-5,16-dioxo-1,2,3,5,6,7,8,9,10,11,13a,14,14a,15,16,16a-hexadecahydrocyclopropa[e]pyrrolo[1,2-a][1,4]diazacyclopentadecin-6-ylcarbamate] | < 5.46 | < 5.46 |
| CC[C@@H]1C[C@H](C)CC/C=C\[C@@H]2C[C@@]2(C(=O)NS(=O)(=O)C2(C)CC2)NC(=O)[C@@H]2C[C@@H](Oc3ncc(OC)c4ccccc34)CN2C(=O)[C@H]1NC(=O)OC(C)(C)C(F)(F)F [Compound 4174, 1,1,1-trifluoro-2-methylpropan-2-yl (2R,6S,7R,9R,13aS,14aR,16aS,Z)-7-ethyl-2-(4-methoxyisoquinolin-1-yloxy)-9-methyl-14a-(1-methylcyclopropylsulfonylcarbamoyl)-5,16-dioxo-1,2,3,5,6,7,8,9,10,11,13a,14,14a,15,16,16a-hexadecahydrocyclopropa[e]pyrrolo[1,2-a][1,4]diazacyclopentadecin-6-ylcarbamate] | < 5.46 | < 5.46 |
